According to US5637318A, “Dermatological agent for assisting the transport of oxygen in the skin” (Lancaster Group AG, priority 1992, dated 1997):
Read-outs that look alike come from different tables or passages of the source.

Tests used:
[1] = 37° C.; cited from earlier work
skin tissue [2] = details: in vivo
Excerpt: (§1) It was possible to determine the dependence of the penetration rate and the depth of penetration of the particle size of the aggregates experimentally by separate investigations in animal experiments using labelled encapsulated fluorocarbons. […] The choice of fluorocarbons or mixtures thereof according to their lipid solubility (represented by their critical solubility temperature CST in n-hexane) permits, as a further important criterion, the regulation of the residence time in the tissue.

skin tissue [3] = assay: Penetration and residence of labelled encapsulated fluorocarbons in skin tissue, animal experiments
Excerpt: as §1

[4] = Critical solubility temperature (CST) in n-hexane; type: physicochemical; details: represented by CST in n-hexane
Excerpt: The choice of fluorocarbons or mixtures thereof according to their lipid solubility (represented by their critical solubility temperature CST in n-hexane) permits, as a further important criterion, the regulation of the residence time in the tissue.

Structure (SMILES) | Vapour Pressure [1] | residence time in the tissue / release from the tissue (skin tissue [2]) | residence time in the tissue / release from the tissue (skin tissue [3]) | lipid solubility [4]
FC1(F)OC(F)(F)C(F)(F)N(C(F)(F)C2(F)C(F)(F)C(F)(F)C(F)(F)C(F)(F)C2(F)F)C1(F)F [F-cyclohexylmethyl-morpholine] | 4 mm Hg | – | – | –
FC1(F)C(F)(F)C(F)(F)C2(F)C(F)(F)C(F)(F)C(F)(F)C(F)(F)C2(F)C1(F)F (centres unmarked) [Perfluorodecalin] | 12.5 mm Hg | released correspondingly more rapidly from the tissue | – | –
FC(F)(F)C(F)(F)C(F)(F)C(F)(F)C(F)(F)C(F)(F)OC(F)(F)C(F)(F)C(F)(F)C(F)(F)C(F)(F)C(F)(F)F [F-dihexyl ether] | 2 mm Hg | – | – | –
FC(F)(F)C(F)(F)C(F)(F)C(F)(F)C1(F)OC(F)(F)C(F)(F)C1(F)F (centres unmarked) [Perfluorobutyl-tetrahydrofuran] | 51 mm Hg | – | released correspondingly more rapidly from the tissue | –
FC(F)(F)C(F)(F)C(F)(F)C(F)(F)C(F)(F)C(F)(F)C(F)(F)C(F)(F)Br [Perfluorooctyl bromide] | 14 mm Hg | – | – | –
FC(F)(F)C(F)(F)C(F)(F)C(F)(F)C(F)(F)C(F)(F)F [F-hexane] | 414 mm Hg | – | – | –
FC(F)(F)C1(F)C(F)(F)C(F)(F)C(F)(F)C(F)(F)C1(F)F [F-methylcyclohexane] | 180 mm Hg | – | – | –
FC(F)(F)C(F)(F)C(F)(F)C(F)(F)C=CC(F)(F)C(F)(F)C(F)(F)C(F)(F)F [bis-F(butyl)ethene] | 12.6 mm Hg | – | – | –
FC(F)(F)C(F)(F)C(F)(F)N(C(F)(F)C(F)(F)C(F)(F)F)C(F)(F)C(F)(F)C(F)(F)F [F-tripropylamine] | 18.5 mm Hg | – | – | –
FC(F)(F)C(F)(F)C(F)(F)C(F)(F)N(C(F)(F)C(F)(F)C(F)(F)C(F)(F)F)C(F)(F)C(F)(F)C(F)(F)C(F)(F)F [F-tributylamine] | 1 mm Hg | – | relatively large residence time | poor lipid solubility
